Assay results taken from patent US20220133694A1, “PHARMACEUTICAL USE” (Novartis AG, priority 2015, published 2022).

Tested on: heart failure patients (NYHA class II-IV) with reduced ejection fraction
Details: randomized patients
Description: Patients enrolled were stratified based on the pre-study level of RAAS inhibition (high/low).
Patients were stratified based on the level of RAAS inhibition as follows: • High RAAS stratum: Patients receiving >160 mg of valsartan or >10 mg total daily dose of enalapril, or equivalent doses of other ARBs/ACEls, respectively, at screening • Low RAAS stratum: Patients receiving ≤160 mg of valsartan or ≤10 mg total daily dose of enalapril, or equivalent doses of other ARBs/ACEls, respectively, at screening. This stratum also included patients who were not on an ACEI or an ARB 4 weeks prior to screening (i.e., ACEI/ARB-naive patients)
Patients who met all the entry criteria and completed the ACEI-free washout period (if required) attended Visit 2 within approximately one week after Visit 1. […] Eligible hospitalized patients also took the study medication while they were still in the hospital and before they were discharged. Patients took the study medication in addition to their background HF therapy, except for ACEIs and ARBs, which were replaced by the study medication.

trisodium [3-((1S,3R)-1-biphenyl-4-ylmethyl-3-ethoxycarbonyl-1-butylcarbamoyl) propionate-(S)-3′-methyl-2′-(pentanoyl{2″-(tetrazol-5-ylate)biphenyl-4′-ylmethyl}amino)butyrate]hemipentahydrate [LCZ696]
most common reasons for dose adjustment/interruption or permanent discontinuation (AEs): hypotension, renal dysfunction or hyperkalemia
